Source: the supplement of paper PMC10307832

What was measured:
Assay in all cases: relative viability (nuclei count vs DMSO), 5 days (fraction); higher = more cells survive
[1] = compound: CN(C)CC1=CC(=CC=C1)N=C(C2=CC=CC=C2)C3=C(NC4=C3C=CC(=C4)C(=O)N(C)C)O + O=C(c1cc(Cc2n[nH]c(=O)c3ccccc23)ccc1F)N1CCN(C(=O)C2CC2)CC1 [Olaparib] (partner 8 µM)
Method in brief: (§1)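 A single step with final 0.05% Triton X-100, 1% formaldehyde and 1 ug/ml Hoechst fixed the cells and stained nuclei 5 days after treatment. Lung cancer cell lines in 1536-well plates had been treated by pin tool the day after seeding with one drug alone or a fixed anchor-drug dose plus five library-drug doses (not always all listed) in √10 steps, and nuclei were counted on 4× images. Relative viability is the ratio of nuclei in treated wells to nuclei in vehicle wells, taken as the median of duplicate plates.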

[2] = compound: CN(C)CC1=CC(=CC=C1)N=C(C2=CC=CC=C2)C3=C(NC4=C3C=CC(=C4)C(=O)N(C)C)O + Cc1nc(NC(=O)N2CCC[C@H]2C(N)=O)sc1-c1ccnc(C(C)(C)C(F)(F)F)c1 [Alpelisib] (partner 2 µM)
Method in brief: as §1

[3] = compound: CN(C)CC1=CC(=CC=C1)N=C(C2=CC=CC=C2)C3=C(NC4=C3C=CC(=C4)C(=O)N(C)C)O + Nc1nc2[nH]cc(CCc3ccc(C(=O)N[C@@H](CCC(=O)O)C(=O)O)cc3)c2c(=O)[nH]1 [Pemetrexed] (partner 0.2 µM)
Method in brief: as §1

[4] = compound: CN(C)CC1=CC(=CC=C1)N=C(C2=CC=CC=C2)C3=C(NC4=C3C=CC(=C4)C(=O)N(C)C)O + CC(=O)c1c(C)c2cnc(Nc3ccc(N4CCNCC4)cn3)nc2n(C2CCCC2)c1=O [Palbociclib] (partner 0.5 µM)
Method in brief: as §1

Cell Line	relative viability ([1]; first compound 0.253 µM)	relative viability ([1]; first compound 0.8 µM)	relative viability ([1]; first compound 2.53 µM)	relative viability ([1]; first compound 8 µM)	relative viability ([2]; first compound 0.08 µM)	relative viability ([2]; first compound 0.253 µM)	relative viability ([2]; first compound 0.8 µM)	relative viability ([2]; first compound 2.53 µM)	relative viability ([2]; first compound 8 µM)	relative viability ([3]; first compound 0.253 µM)	relative viability ([3]; first compound 0.8 µM)	relative viability ([3]; first compound 2.53 µM)	relative viability ([3]; first compound 8 µM)	relative viability ([4]; first compound 0.253 µM)	relative viability ([4]; first compound 0.8 µM)	relative viability ([4]; first compound 2.53 µM)	relative viability ([4]; first compound 8 µM)	relative viability ([1]; first compound 0.08 µM)	relative viability ([3]; first compound 0.08 µM)	relative viability ([4]; first compound 0.08 µM)
NCI-H23	0.284	0.365	0.316	0.345	0.705	0.607	0.754	0.6	0.573	0.718	0.962	0.776	0.596	0.655	0.556	0.579	0.478	–	–	–
NCI-H322M	0.753	0.679	0.645	0.661	0.768	0.714	0.695	0.797	0.708	0.6	0.612	0.565	0.527	0.48	0.45	0.442	0.432	0.68	0.556	0.448
NCI-H358	0.661	0.546	0.527	0.528	0.743	0.814	0.766	0.718	0.606	0.173	0.165	0.164	0.175	0.139	0.141	0.149	0.17	0.598	0.176	0.122
NCI-H441	0.588	0.627	0.461	0.499	0.717	0.761	0.642	0.834	0.495	0.274	0.237	0.258	0.291	0.231	0.2	0.198	0.247	0.728	0.264	0.217
NCI-H460	0.447	0.433	–	0.428	0.521	0.454	0.467	0.401	0.229	0.0794	0.0612	0.0522	0.0565	0.221	0.211	0.132	0.237	0.46	0.0639	0.224
NCI-H520	0.352	0.284	0.298	0.286	0.865	0.871	0.825	0.725	0.656	0.654	0.737	0.563	0.435	0.2	0.214	0.195	0.173	0.378	0.688	0.234
NCI-H647	0.579	0.523	0.575	0.305	1.2	1.14	1.14	0.98	0.66	0.181	0.147	0.172	0.181	0.433	0.471	0.45	0.382	0.386	0.179	0.431
NCI-H650	0.395	0.448	0.359	0.406	1.05	0.956	1.2	0.945	0.825	1.14	1.15	0.979	0.831	0.371	0.387	0.355	0.364	0.418	0.933	0.319
NCI-H661	0.697	0.74	0.649	0.706	0.67	0.635	0.37	0.685	0.614	0.901	0.935	0.928	0.907	0.381	0.391	0.392	0.429	0.739	0.867	0.435
NCI-H838	0.901	0.751	0.726	0.665	1.06	0.956	0.977	0.883	0.934	0.243	0.23	0.213	0.253	0.243	0.199	0.198	0.177	0.789	0.247	0.253
NCI-H1355	0.707	0.772	0.752	0.732	0.802	0.724	0.681	0.838	0.849	0.991	0.926	0.949	1.02	0.399	0.305	0.4	0.4	0.771	1.03	0.425
NCI-H1395	0.445	0.416	0.492	0.448	1.04	0.948	1.1	0.87	0.964	0.931	0.992	0.763	0.834	0.612	0.698	0.544	0.602	0.499	0.915	0.617
NCI-H1437	0.659	0.634	0.622	0.635	1.01	0.996	0.951	0.906	0.971	0.294	0.287	0.283	0.285	0.365	0.317	0.331	0.368	0.621	0.297	0.339
NCI-H1651	0.203	0.195	0.188	0.181	1.05	0.985	1.03	0.807	0.826	0.564	0.639	0.558	0.668	0.505	0.554	0.521	0.494	0.19	0.565	0.526
NCI-H1666	0.761	0.785	0.754	0.797	1.07	0.98	1.01	1.18	0.946	0.909	0.825	0.886	1.01	0.652	0.684	0.681	0.73	0.763	0.774	0.617
NCI-H1734	0.611	0.672	0.633	0.515	0.624	0.71	0.643	0.693	0.5	0.441	0.436	0.398	0.436	0.353	0.346	0.31	0.31	0.547	0.405	0.39

Cell Line	relative viability ([1]; first compound 0.253 µM)	relative viability ([1]; first compound 0.8 µM)	relative viability ([1]; first compound 2.53 µM)	relative viability ([1]; first compound 8 µM)	relative viability ([2]; first compound 0.08 µM)	relative viability ([2]; first compound 0.253 µM)	relative viability ([2]; first compound 0.8 µM)	relative viability ([2]; first compound 2.53 µM)	relative viability ([2]; first compound 8 µM)	relative viability ([3]; first compound 0.253 µM)	relative viability ([3]; first compound 0.8 µM)	relative viability ([3]; first compound 2.53 µM)	relative viability ([3]; first compound 8 µM)	relative viability ([4]; first compound 0.253 µM)	relative viability ([4]; first compound 0.8 µM)	relative viability ([4]; first compound 2.53 µM)	relative viability ([4]; first compound 8 µM)	relative viability ([1]; first compound 0.08 µM)	relative viability ([3]; first compound 0.08 µM)	relative viability ([4]; first compound 0.08 µM)
NCI-H1755	0.898	0.923	0.825	0.794	0.903	0.91	0.916	0.867	0.853	0.404	0.371	0.364	0.423	0.45	0.426	0.452	0.439	0.835	0.351	0.438
NCI-H1792	0.452	0.479	0.387	0.422	0.689	0.588	0.669	0.644	0.555	0.826	0.702	0.673	0.838	0.638	0.673	0.641	0.665	0.536	0.872	0.666
NCI-H1793	0.774	0.678	0.95	0.758	0.633	0.886	0.58	0.812	0.814	0.872	0.553	0.791	0.823	0.363	0.326	0.329	0.351	0.924	0.901	0.27
NCI-H1915	0.271	0.249	0.249	0.251	1.12	1.05	1.11	1.05	1.02	0.446	0.629	0.513	0.417	0.528	0.555	0.537	0.48	0.257	0.51	0.533
NCI-H1944	0.389	0.373	0.42	0.377	0.828	0.799	0.748	0.826	0.783	0.571	0.615	0.512	0.537	0.344	0.282	0.357	0.33	0.424	0.607	0.32
NCI-H1975	0.829	0.815	0.755	0.754	0.632	0.646	0.545	0.553	0.471	0.327	0.287	0.301	0.31	0.398	0.456	0.574	0.339	0.773	0.292	0.646
NCI-H1993	1.1	–	1.12	1.06	0.83	0.671	0.622	0.694	0.732	0.576	–	0.495	0.634	0.615	–	0.75	0.592	0.772	0.684	0.63
NCI-H2009	0.722	0.732	0.649	0.669	1.15	1.11	1.1	1.04	1.05	0.993	1.08	1.03	0.957	0.236	0.258	0.198	0.192	0.726	0.982	0.165
NCI-H2023	0.525	0.473	0.416	0.414	0.555	0.685	0.553	0.442	0.451	0.251	0.238	0.19	0.246	0.325	0.357	0.289	0.36	0.539	0.228	0.332
NCI-H2085	0.777	0.776	0.725	0.816	1.03	0.973	1.05	0.949	1.06	0.948	0.832	0.908	0.901	0.492	0.476	0.5	0.559	0.793	0.87	0.452
NCI-H2087	0.507	0.41	0.536	0.537	1.14	1.24	1.15	1.15	0.992	0.644	0.617	0.721	0.68	0.236	0.214	0.289	0.263	0.571	0.629	0.233
NCI-H2126	0.87	0.907	0.912	0.957	0.806	0.784	0.751	0.762	0.779	0.706	0.708	0.639	0.626	0.362	0.286	0.363	0.36	0.885	0.677	0.373
NCI-H2170	0.552	0.491	0.535	0.554	0.809	0.827	0.514	0.714	0.578	0.281	0.29	0.264	0.271	0.384	0.341	0.368	0.397	0.672	0.245	0.443
NCI-H2228	0.542	0.623	0.689	0.557	0.452	0.753	0.859	0.687	0.588	0.36	0.339	0.33	0.353	0.602	0.715	0.673	0.77	0.781	0.312	0.825
NCI-H2347	0.584	0.593	0.572	0.575	1.02	0.983	1.07	1.08	1.04	0.461	0.418	0.42	0.43	0.389	0.445	0.456	0.518	0.536	0.405	0.428
NCI-H2405	0.896	0.935	0.753	0.757	0.87	0.713	0.889	0.721	0.654	1.07	0.936	1.08	0.828	0.562	0.513	0.467	0.478	0.888	1.2	0.545
